Data published in paper PMC7686313, “Phase 1 study of mTORC1/2 inhibitor sapanisertib (TAK-228) in advanced solid tumours, with an expansion phase in renal, endometrial or bladder cancer” (British Journal of Cancer, 2020).

Assay: Safety (adverse events, NCI CTCAE v4.0), expansion phase
Details: expansion QW 30 mg

CC(C)n1nc(-c2ccc3oc(N)nc3c2)c2c(N)ncnc21 [Sapanisertib]
Abdominal pain, all-grade AE of any cause: 6 (35) n (%) | Abdominal pain, grade ≥3 AE of any cause: 0 (0) n (%) | Acute kidney injury, grade ≥3 AE of any cause: 0 (0) n (%) | Acute kidney injury, treatment-related AE: 0 (0) n (%) | Anaemia, all-grade AE of any cause: 2 (12) n (%) | Anaemia, grade ≥3 AE of any cause: 1 (6) n (%) | Anaemia, treatment-related AE: 2 (12) n (%) | Any AE: 17 (100) n (%) | Any AE resulting in dose modification/interruption: 8 (47) n (%) | Any AE resulting in treatment discontinuation: 3 (18) n (%) | Any SAE: 6 (35) n (%) | Any grade ≥3 AE: 9 (53) n (%) | Any treatment-related AE: 17 (100) n (%) | Any treatment-related SAE: 3 (18) n (%) | Any treatment-related grade ≥3 AE: 6 (35) n (%) | Arthralgia, all-grade AE of any cause: 2 (12) n (%) | Asthenia, grade ≥3 AE of any cause: 0 (0) n (%) | Asthenia, treatment-related AE: 1 (6) n (%) | Asthenia, treatment-related grade ≥3 AE: 0 (0) n (%) | Blood creatinine increased, all-grade AE of any cause: 4 (24) n (%) | Blood creatinine increased, treatment-related AE: 1 (6) n (%) | Constipation, all-grade AE of any cause: 8 (47) n (%) | Constipation, grade ≥3 AE of any cause: 1 (6) n (%) | Cough, all-grade AE of any cause: 5 (29) n (%) | Decreased appetite, all-grade AE of any cause: 7 (41) n (%) | Decreased appetite, treatment-related AE: 6 (35) n (%) | Dehydration, all-grade AE of any cause: 4 (24) n (%) | Dehydration, grade ≥3 AE of any cause: 0 (0) n (%) | Dehydration, treatment-related AE: 2 (12) n (%) | Dehydration, treatment-related grade ≥3 AE: 0 (0) n (%) | Depression, all-grade AE of any cause: 4 (24) n (%) | Diarrhoea, all-grade AE of any cause: 8 (47) n (%) | Diarrhoea, grade ≥3 AE of any cause: 0 (0) n (%) | Diarrhoea, treatment-related AE: 5 (29) n (%) | Diarrhoea, treatment-related grade ≥3 AE: 0 (0) n (%) | Dizziness, all-grade AE of any cause: 0 (0) n (%) | Dry mouth, all-grade AE of any cause: 3 (18) n (%) | Dry mouth, treatment-related AE: 1 (6) n (%) | Dysgeusia, all-grade AE of any cause: 4 (24) n (%) | Dysgeusia, treatment-related AE: 3 (18) n (%) | Dyspepsia, treatment-related AE: 3 (18) n (%) | Dyspnoea, grade ≥3 AE of any cause: 0 (0) n (%) | Fatigue, all-grade AE of any cause: 11 (65) n (%) | Fatigue, grade ≥3 AE of any cause: 2 (12) n (%) | Fatigue, treatment-related AE: 11 (65) n (%) | Fatigue, treatment-related grade ≥3 AE: 2 (12) n (%) | Haematuria, grade ≥3 AE of any cause: 0 (0) n (%) | Headache, all-grade AE of any cause: 2 (12) n (%) | Headache, treatment-related AE: 0 (0) n (%) | Hypercholesterolemia, treatment-related AE: 1 (6) n (%) | Hyperglycaemia, all-grade AE of any cause: 12 (71) n (%) | Hyperglycaemia, grade ≥3 AE of any cause: 2 (12) n (%) | Hyperglycaemia, treatment-related AE: 12 (71) n (%) | Hyperglycaemia, treatment-related grade ≥3 AE: 2 (12) n (%) | Hyperkalaemia, grade ≥3 AE of any cause: 0 (0) n (%) | Hypertension, grade ≥3 AE of any cause: 0 (0) n (%) | Hypokalaemia, grade ≥3 AE of any cause: 1 (6) n (%) | Hyponatremia, grade ≥3 AE of any cause: 1 (6) n (%) | Hypophosphatemia, grade ≥3 AE of any cause: 2 (12) n (%) | Hypophosphatemia, treatment-related AE: 2 (12) n (%) | Hypophosphatemia, treatment-related grade ≥3 AE: 1 (6) n (%) | Lymphopenia, grade ≥3 AE of any cause: 0 (0) n (%) | Lymphopenia, treatment-related grade ≥3 AE: 0 (0) n (%) | Musculoskeletal chest pain, grade ≥3 AE of any cause: 0 (0) n (%) | Nausea, all-grade AE of any cause: 13 (76) n (%) | Nausea, grade ≥3 AE of any cause: 2 (12) n (%) | Nausea, treatment-related AE: 11 (65) n (%) | Nausea, treatment-related grade ≥3 AE: 1 (6) n (%) | Oedema peripheral, all-grade AE of any cause: 1 (6) n (%) | On-study deaths: 2 (12) n (%) | Oropharyngeal pain, all-grade AE of any cause: 1 (6) n (%) | Pain in extremity, grade ≥3 AE of any cause: 2 (12) n (%) | Pneumonia, grade ≥3 AE of any cause: 0 (0) n (%) | Pruritus generalised, all-grade AE of any cause: 4 (24) n (%) | Pruritus generalised, treatment-related AE: 2 (12) n (%) | Pruritus generalised, treatment-related grade ≥3 AE: 0 (0) n (%) | Pruritus, all-grade AE of any cause: 1 (6) n (%) | Pruritus, treatment-related AE: 1 (6) n (%) | Pyrexia, all-grade AE of any cause: 1 (6) n (%) | Rash maculo-papular, all-grade AE of any cause: 3 (18) n (%) | Rash maculo-papular, grade ≥3 AE of any cause: 0 (0) n (%) | Rash maculo-papular, treatment-related AE: 2 (12) n (%) | Rash maculo-papular, treatment-related grade ≥3 AE: 0 (0) n (%) | Rash, treatment-related AE: 0 (0) n (%) | Rash, treatment-related grade ≥3 AE: 0 (0) n (%) | Sepsis, grade ≥3 AE of any cause: 1 (6) n (%) | Stomatitis (includes oropharyngeal pain and mucosal inflammation), treatment-related AE: 8 (47) n (%) | Stomatitis, all-grade AE of any cause: 9 (53) n (%) | Stomatitis, grade ≥3 AE of any cause: 0 (0) n (%) | Stomatitis, treatment-related grade ≥3 AE: 0 (0) n (%) | Thrombocytopenia, grade ≥3 AE of any cause: 1 (6) n (%) | Thrombocytopenia, treatment-related grade ≥3 AE: 1 (6) n (%) | Transitional cell carcinoma, grade ≥3 AE of any cause: 1 (6) n (%) | Urinary tract infection, all-grade AE of any cause: 1 (6) n (%) | Vomiting, all-grade AE of any cause: 10 (59) n (%) | Vomiting, grade ≥3 AE of any cause: 1 (6) n (%) | Vomiting, treatment-related AE: 10 (59) n (%) | Weight decreased, all-grade AE of any cause: 2 (12) n (%) | Weight decreased, treatment-related AE: 0 (0) n (%)
